According to patent US20040102454A1, “Phenylahistin and the phenylahistin analogs, a new class of anti-tumor compounds” (priority 1998, published 2004):

Key:
Type in all cases: cell-based
[1] = system: colibacillus strain JM109; test: Antimicrobial test, filter paper agar flat plate method; details: 100 μg of specimen on 9 mm filter paper
Method: (§1) Using colibacillus strain JM109 as a gram-negative bacterium, Bacillus natto as a […] and Aspergillus niger IFO6341 as a mold, the following antimicrobial test was conducted by the filter paper agar flat plate method, wherein 100 μg of specimen was placed on 9 mm filter paper, dried in air, and standard agar culture medium was used for bacteria and potato dextrose agar culture medium for mold. […] An antimicrobial test was further conducted by the liquid culture medium dilution method using the yeast strain Saccharomyces cerevisise HF7C.

Bacillus natto = test: as above; details: 100 μg of specimen on 9 mm filter paper
Method: as §1

[2] = system: Aspergillus niger IFO6341; test: as above; details: 100 μg of specimen on 9 mm filter paper
Method: as §1

[3] = system: A549 cells (human lung carcinoma); test: A549 proliferation, Alamar Blue assay
Method: Exponentially growing A549 cells were seeded into 96-well tissue culture plates (2×10^3 cells/100 μl/well) and cultured for 16 hours. (−)-PLH or CLC was then added to each well at various concentrations, and the cells were cultured for an additional 48 hours. Live cells were counted using Alamar Blue™ from BioSource International (Camarillo, Calif.) as described in Ahmed, S. A., J. Immunol. Methods, (1994), 170, 211-24.

Row | Structure (SMILES) | antimicrobial activity [1] | antimicrobial activity (Bacillus natto) | antimicrobial activity [2] | IC50 ([3]; Homo sapiens, A549, read-out: 50% inhibitory concentration (IC50), proliferation of A549 cells, 48 hours) [nM] | fold less potent than CLC, A549 proliferation ([3]; versus CLC under the assay conditions) [fold]
1 | C=CC(C)(C)c1[nH]cnc1/C=C1\NC(=O)[C@H](Cc2ccccc2)NC1=O (racemic) [PLH, phenylahistin] | No antimicrobial activity | No antimicrobial activity | No antimicrobial activity |  | 
2 | C=CC(C)(C)c1[nH]cnc1/C=C1\NC(=O)[C@H](Cc2ccccc2)NC1=O [(−)-phenylahistin] |  |  |  | 300 | 5
